Experimental data: patent publication US20220160820A1, “MODULATORS OF COMPLEMENT ACTIVITY” (Ra Pharmaceuticals, Inc., priority 2019, published 2022)

Legend:
[1] = test system: Co-cultures of human myotubes and neuroblastoma cells; assay: In vitro NMJ model: autoantibody-induced C5b-9 deposition by immunofluorescence; type: cell-based; conditions: 10 μM zilucoplan; anti-AChR 637 IgG1; human sera; anti-C5b-9 immunofluorescence
Method: Co-cultures of human myotubes and neuroblastoma cells were prepared and cultured with human sera as an in vitro NMJ model. […] Subsequent deposition of C5b-9 was observed by immunofluorescence using an anti-C5b-9 antibody (aE11, AbCam. Cambridge. UK).

[2] = test system: human C5 polymorphisms (including p.R885>H/C); assay: Binding and inhibitory activities in presence of C5 polymorphisms; conditions: presence of clinically-relevant human C5 polymorphisms (including p.R885>H/C)
[3] = In vivo drug-drug interaction study with cyclosporine A; conditions: following cyclosporine A administration; NHPs
[4] = Zilucoplan levels in a patient receiving concomitant IVIG; type: in vivo, human; conditions: patient receiving concomitant therapeutic doses of IVIG
Text: (§1) By inhibiting FcRN, DX-2504 inhibits Fc-mediated recycling, thereby reducing the half-life of IgG antibodies. Administration of DX-2504 serves as a model for intravenous immunoglobulin (IVIG) treatment, which reduces the half-life of IgG antibodies by overwhelming the Fc recycling mechanism with large doses of immunoglobulin.

[5] = Quantitative whole body analysis (QWBA) of radiolabeled zilucoplan; type: in vivo; conditions: rats, 24 hours
Method: In some embodiments, compound permeability may be determined using quantitative whole body analysis (QWBA). QWBA is a form of analysis that uses radiography to assess distribution of radiolabeled analytes. In some embodiments, radiolabeled compounds are administered to subjects and tissue distribution of the compounds is analyzed over time.
Enhanced permeability of zilucoplan was confirmed by quantitative whole body analysis (QWBA). […] Area under the concentration curve (AUC) for each organ or tissue analyzed was expressed as a percentage of plasma AUC to yield a biodistribution value, presented in Table 2 below. […] 5:297-305, are provided for comparison.

[6] = molecular target: surface-bound C5b-9 or soluble membrane attack complex (sC5b-9) (Homo sapiens, UniProt P01031); assay: Binding to C5b-9 / soluble membrane attack complex
[7] = In-vitro permeability, basement membrane model; type: in vitro ADME
Text: In some embodiments, the present disclosure provides methods of inhibiting C5 activity in a tissue by contacting the tissue with a tissue-penetrating C5 inhibitor. As used herein, the term “tissue-penetrating” refers to a property characterized by tissue permeability. […] Tissue penetration may be assessed by ability to cross basement membranes. As used herein, the term “basement membrane” refers to an extracellular matrix (ECM) protein layer separating endothelial cells from underlying tissues. Tissue penetration assessments may be done in vivo or in vitro and may include the use of basement membrane models. Such models may include measuring compound diffusion across artificial basement membranes. Such models may include the use of upper and lower reservoirs separated by an artificial basement membrane. Artificial basement membranes may include any of the ECM gel membranes described in Arends, F. et al. 2016. IntechOpen, DOI: 10.5772/62519, the contents of which are herein incorporated by reference in their entirety. ECM gel membranes may be prepared to include matrix components mimicking those found in the basal lamina of neuromuscular junctions.
The ECM gel membrane was prepared to include matrix components mimicking those found in the basal lamina of neuromuscular junctions.

[8] = In vivo drug-drug interaction study with anti-FcRn monoclonal antibody DX-2507; conditions: concomitant dosing of anti-FcRn monoclonal antibody DX-2507; Cynomolgus monkeys
Text: as §1

In the case of `CCCCCCCCCCCCCCCC(=O)N[C@@H](CCC(=O)NCCOCCOCCOCCOCCOCCOCCOCCOCCOCCOCCOCCOCCOCCOCCOCCOCCOCCOCCOCCOCCOCCOCCOCCOCCCCC(=O)NCCCC[C@H](NC(=O)[C@@H](NC(=O)[C@@H]1CCCN1C(=O)[C@H](Cc1ccc(O)cc1)NC(=O)[C@H](CCC(=O)[O-])NC(=O)[C@H](Cc1c[nH]c2ncccc12)NC(=O)[C@H](Cc1ccc(O)cc1)NC(=O)[C@@H](NC(=O)[C@H](CC(=O)[O-])N(C)C(=O)[C@@H]1CC(=O)NCCCC[C@H](NC(C)=O)C(=O)N[C@@H](C(C)C)C(=O)N[C@@H](CCC(=O)O)C(=O)N[C@@H](CCCNC(=N)N)C(=O)N[C@@H](Cc2ccccc2)C(=O)N1)C(C)(C)C)C1CCCCC1)C(=O)[O-])C(=O)[O-].[Na+].[Na+].[Na+].[Na+]` [zilucoplan], the C5b-9 deposition [1] is reported as “absent”, the “binding and inhibitory activities” value [2] is reported as “not affected” and the “effects on zilucoplan exposure” value [3] is reported as “No effects”. For the same compound, the “changes in zilucoplan levels” value [4] was “no changes”, the “Zilucoplan biodistribution % (tissue AUC as percentage of plasma AUC)” value ([5]; Bone) was 15.3% and the “Zilucoplan biodistribution % (tissue AUC as percentage of plasma AUC)” value ([5]; Brain) was 0.9%. The “Zilucoplan biodistribution % (tissue AUC as percentage of plasma AUC)” value ([5]; Fat) was 16.2%, the “Zilucoplan biodistribution % (tissue AUC as percentage of plasma AUC)” value ([5]; Heart) was 22.9% and the “Zilucoplan biodistribution % (tissue AUC as percentage of plasma AUC)” value ([5]; Large Intestine) was 21.7%. The “Zilucoplan biodistribution % (tissue AUC as percentage of plasma AUC)” value ([5]; Liver) was 27.1%, the “Zilucoplan biodistribution % (tissue AUC as percentage of plasma AUC)” value ([5]; Lung) was 37.5% and the “Zilucoplan biodistribution % (tissue AUC as percentage of plasma AUC)” value ([5]; Lymph nodes) was 12.8%. For the same compound, the “Zilucoplan biodistribution % (tissue AUC as percentage of plasma AUC)” value ([5]; Muscle) was 7.0%, the “Zilucoplan biodistribution % (tissue AUC as percentage of plasma AUC)” value ([5]; Pancreas) was 15.8% and the “Zilucoplan biodistribution % (tissue AUC as percentage of plasma AUC)” value ([5]; Small Intestine) was 10.9%. The “Zilucoplan biodistribution % (tissue AUC as percentage of plasma AUC)” value ([5]; Spleen) was 15.5%, the “Zilucoplan biodistribution % (tissue AUC as percentage of plasma AUC)” value ([5]; Stomach) was 8.5% and the “Zilucoplan biodistribution % (tissue AUC as percentage of plasma AUC)” value ([5]; Testes) was 15.5%. For the same compound, the “Zilucoplan biodistribution % (tissue AUC as percentage of plasma AUC)” value ([5]; Thymus) was 7.8%, the “binding to surface-bound C5b-9 or sC5b-9” value [6] was “does not bind” and the “fraction introduced to upper reservoir diffused to lower reservoir” value ([7]; 24 hours) was “more than 60%”. The “fraction introduced to upper reservoir diffused to lower reservoir” value ([7]; after 12 hours) was “Greater than 20%”, the Zilucoplan pharmacodynamics [8] was “did not change” and the Zilucoplan pharmacokinetics [8] was “did not change”.
